≈ marks a conversion by molar mass, not a printed value. Where “and” joins values, the source holds several entries; their conditions need not be identical. Identical values can stand only once. Like-named read-outs stand apart in the source and are kept apart here.
Legend:
Type in all cases: cell-based
[1] = tested on: Candida albicans (strain n° CA980001); experiment: Antifungal activity on a clinical strain of Candida albicans (MTT colorimetric microplate test); conditions: for CMI or CI80 Candida albicans (CA980001) / MIC: strain CA980001; for activity of inhibition of Candida albicans (in words): summary of Tables 27 to 40; for MIC: read-out: CMI or CI80 Candida albicans (CA980001)
[2] = tested on: Aspergillus fumigatus (strain n°AF 980003); experiment: Antifungal activity on a clinical strain of Aspergillus fumigatus (Alamar Blue microplate test); conditions: for MIC / CMI or CI80 Aspergillus fumigatus (AF980003): strain AF980003; for MIC: read-out: CMI or CI80 Aspergillus fumigatus (AF980003); for activity against Aspergillus fumigatus (in words): summary of Tables 27 to 40
[3] = tested on: promastigote stage of Leishmania mexicana; experiment: Antiparasitic activity on the promastigote form of Leishmania (MTT); conditions: for IC50: read-out: CI50 Leishmania mexicana Promastigotes
[4] = promastigotes, 36 h at 26° C., MTT

Fc1ccc(C(C(n2ccc3ccccc32)n2nnc3ccccc32)n2ccnc2)cc1 (mixture of isomers) [compound 83]
CMI or CI80 Candida albicans (CA980001) [1]: 55 ± 5 μM and 23 ± 2 μg/mL
MIC [2]: >100 µM
CI50 Leishmania mexicana Promastigotes [3]: 1.85 ± 0.03 µg/mL
IC50 [3]: 4.4 ± 0.07 µM

CCN1CCc2cccc(C(c3cccc(Cl)c3)n3ccnc3)c21 (racemic) [compound 48]
CMI or CI80 Candida albicans (CA980001) ([1]; 24 h at 37° C., MTT): 0.06 ± 0.01 μM and 0.02 ± 0.01 μg/ml
activity of inhibition of Candida albicans (in words) [1]: most active
CMI or CI80 Aspergillus fumigatus (AF980003) ([2]; Alamar Blue): 58 ± 4 μM and 26 ± 2 μg/ml
activity against Aspergillus fumigatus (in words) [2]: strong activity
activity against Leishmania mexicana (in words) [3]: strong activity
CI50 Leishmania mexicana Promastigotes [3, 4]: 1 ± 0.3 µg/mL (≈ 2.96 µM)
IC50 [3, 4]: 3 ± 1 µM

Fc1ccc(Cn2c(Cn3ccnc3)cc3ccccc32)cc1.O=[N+]([O-])O [3n]
CMI or CI80 Candida albicans (CA980001) ([1]; 24 h at 37° C., MTT): 16 ± 6 μM and 6 ± 2 μg/ml

CC(C)(C)c1ccc(Cn2cc(Cn3ccnc3)c3ccccc32)cc1.O=C(O)/C=C/C(=O)O [7f]
MIC ([1]; 24 h at 37° C., MTT): >100 µM
CMI or CI80 Aspergillus fumigatus (AF980003) ([2]; Alamar Blue): 70 ± 3 μM and 32.17 ± 3 μg/ml
CI50 Leishmania mexicana Promastigotes [3]: 3.9 ± 0.09 µg/mL
activity against Leishmania mexicana (in words) [3]: strong activity
IC50 [3]: 8.4 ± 0.5 µM

Fc1ccc(Cn2ccc3ccc(Cn4ccnc4)cc32)cc1.O=[N+]([O-])O [19n]
CMI or CI80 Candida albicans (CA980001) ([1]; 24 h at 37° C., MTT): 77 ± 1 μM and 28.36 ± 1 μg/ml
MIC ([2]; Alamar Blue): >100 µM

CCn1c(C(c2cccc(Br)c2)n2ccnc2)c(C)c2ccccc21.O=[N+]([O-])O (stereo not drawn) [26n]
CMI or CI80 Candida albicans (CA980001) [1]: 60 ± 1 μM and 27 ± 1 μg/mL

CCn1c(C(c2ccc(Br)cc2)n2ccnc2)c(C)c2ccccc21.O=[N+]([O-])O (stereo not drawn) [27n]
CMI or CI80 Candida albicans (CA980001) [1]: 57 ± 4 μM and 25 ± 2 μg/mL

CCn1c(C(c2cccc(Cl)c2)n2ccnc2)c(C)c2ccccc21.O=[N+]([O-])O (stereo not drawn) [28n]
CMI or CI80 Candida albicans (CA980001) [1]: 58 ± 2 μM and 24 ± 1 μg/mL

CCn1c(C(c2ccc(Cl)cc2)n2ccnc2)c(C)c2ccccc21.O=[N+]([O-])O (stereo not drawn) [29n]
CMI or CI80 Candida albicans (CA980001) [1]: 6 ± 1 μM and 2 ± 1 μg/mL
activity of inhibition of Candida albicans (in words) [1]: significant activity

CCn1c(C(c2ccc(F)cc2)n2ccnc2)c(C)c2ccccc21.O=[N+]([O-])O (stereo not drawn) [31n]
CMI or CI80 Candida albicans (CA980001) [1]: 7 ± 0.3 μM and 2.77 ± 0.3 μg/mL
activity of inhibition of Candida albicans (in words) [1]: significant activity
CMI or CI80 Aspergillus fumigatus (AF980003) [2]: 16 ± 3 μM and 6 ± 1 μg/mL
activity against Aspergillus fumigatus (in words) [2]: most active
activity against Leishmania mexicana (in words) [3]: most active
IC50 ([3]; promastigotes): < 0.1 µM

CCn1cc(C(c2cccc(Cl)c2)n2ccnc2)c2ccccc21.O=[N+]([O-])O (stereo not drawn) [40n]
CMI or CI80 Candida albicans (CA980001) [1]: 7 ± 1 μM and 3.1 ± 1 μg/mL
activity of inhibition of Candida albicans (in words) [1]: significant activity

CCn1cc(C(c2ccc(Cl)cc2)n2ccnc2)c2ccccc21.O=[N+]([O-])O (stereo not drawn) [41n]
CMI or CI80 Candida albicans (CA980001) [1]: 19 ± 10 μM and 8 ± 4 μg/mL

CCn1cc(C(c2ccc(Cl)cc2Cl)n2ccnc2)c2ccccc21.O=[N+]([O-])O (stereo not drawn) [42n]
CMI or CI80 Candida albicans (CA980001) [1]: 73 ± 3 μM and 32 ± 1 μg/mL

CCn1ccc2cccc(C(c3cccc(Cl)c3)n3ccnc3)c21.O=[N+]([O-])O (stereo not drawn) [55n]
CMI or CI80 Candida albicans (CA980001) [1]: 0.039 µg/mL
MIC [1]: 0.098 µM
activity of inhibition of Candida albicans (in words) [1]: most active
MIC [2]: >100 µM

CCn1ccc2cccc(C(c3ccc(Cl)cc3)n3ccnc3)c21.O=[N+]([O-])O (stereo not drawn) [56n]
CMI or CI80 Candida albicans (CA980001) [1]: 0.16 µg/mL
MIC [1]: 0.4 µM
activity of inhibition of Candida albicans (in words) [1]: most active

Clc1ccc(Cn2cc(CCCCn3ccnc3)c3ccccc32)cc1.O=[N+]([O-])O [61n]
MIC [1]: >100 µM
MIC [2]: >100 µM
CI50 Leishmania mexicana Promastigotes [3]: 20.05 ± 0.3 µg/mL
IC50 [3]: 62 ± 0.3 µM

CCC(c1cn(Cc2ccc(Cl)cc2)c2ccccc12)n1ccnc1.O=[N+]([O-])O (stereo not drawn) [64n]
CMI or CI80 Candida albicans (CA980001) [1]: 36 ± 10 μM and 15 ± 4 μg/mL
CMI or CI80 Aspergillus fumigatus (AF980003) [2]: 57 ± 5 μM and 23.53 μg/mL
activity against Aspergillus fumigatus (in words) [2]: strong activity
CI50 Leishmania mexicana Promastigotes ([3]; promastigotes): 2.97 ± 0.02 µg/mL
IC50 ([3]; promastigotes): 7.2 ± 0.07 µM

CCCC(c1cn(Cc2ccc(Cl)cc2)c2ccccc12)n1ccnc1.O=C(O)/C=C/C(=O)O (stereo not drawn) [65f]
MIC [1]: >100 µM
MIC [2]: >100 µM
CI50 Leishmania mexicana Promastigotes [3]: 37.7 ± 4.5 µg/mL
IC50 [3]: 78.7 ± 9.5 µM

From patent US20040067998A1, “Antifungal and/or antiparasitic pharmaceutical composition and novel indole derivatives as active principle of such a composition” (priority 2003, published 2004)
